Source: patent US9630991B2, “βsheet tapes ribbons in tissue engineering” (University of Leeds, priority 2002, dated 2017)
Entries after “also recorded” stand apart in the source; their conditions may differ. Where a name gives a salt, the structure may show the parent alone. Where a SMILES comes first, the peptide text is derived from it. Where no end group is shown, it is not given here. [ ]: non-standard residue; d: D form. Orn = NCCC[C@H](N)C(=O)O

Assays:
[1] = Net charge of peptide at pH 7.5 in physiological solution; format: physicochemical; conditions: per peptide, pH 7.5, physiological solution
[2] = Fibril dimensions measured from TEM images; format: physicochemical; conditions: physiological conditions, TEM
Procedure: For, electron microscopy, samples were examined using a Phillips CM10 TEM at 80-100 kV accelerating voltage. Gels were diluted to a peptide concentration of 20 μM seconds before application to a glow-discharged, carbon-coated, copper grid followed by coating with uranyl acetate solution (4% w/v in water).
The dimensions of the fibrils formed by these peptides are given in Table 2, and TEM images from which these measurements were obtained are shown in FIGS. 6A-6D. These dimensions are—the length of a peptide fibril (contour length, L), the length of a peptide fibril before it curves (persistence length, l), the length of a full twist of a peptide fibril (twist pitch, h) the width of a fibril at its widest point (ww) and the width of the fibril at its narrowest point as it twists (wn).

L929 fibroblast cells = experiment: Cell density in peptide gels by ATPLite assay; format: cell-based, murine
Excerpt: After establishing that the peptides tested were not cytotoxic when placed in culture with L929 fibroblast cells, the next stage was assessing the suitability of the collagen peptide gels for use in supporting cell proliferation.

[3] = Self-assembly and gel formation in physiological solution / cell media; format: physicochemical; conditions: for peptide concentration for self-supporting gel: physiological conditions
Excerpt: A large number (dozens) of systematically varied peptides (typically 7-30 residues long) have been studied for soluble polymer and gel formation in cell media. […] Only peptides with a approximate net +2 or −2 charge per peptide at physiological pH=7.5, were able to form soluble polymers and gel cell media (The amount of net charge necessary per peptide to keep its polymers soluble in cell media will vary depending on the overall surface properties and solubility of the peptide tapes it forms). […] These peptides retained a predominantly monomeric state and their solutions in cell media were fluids up to around 40 mg/ml peptide concentration.
The rationally designed peptide P11-8 (Tables 1A and 1C) was dissolved in 145 mM NaCl, pH˜7.5 aqueous solution (the ionic strength and pH values of the solution were similar to those present in cell culture medium) or it was added directly in cell culture medium.
The fibrils of P11-8 entwined partly with each other forming a three dimensional network and turned the peptide solution in cell media into a homogeneous self-supporting gel at peptide concentration higher than 15 mg/ml.
The gel could be temporarily broken by mechanical agitation. The time it took the gel to reform depended on the peptide concentration, ranging from seconds for a 35 mg/ml peptide gel, to hours for a 15 mg/ml peptide gel.

[4] = system: tissue surrounding the injection site; parameters: species or system mice; conditions: mouse, in vivo
Excerpt: Injection of P11-3 and P11-8 peptide solutions in cell media in mice has shown no effect of the presence of the peptide in the tissue surrounding the injection site as judged by histology after two and eight weeks following the peptide injection.

Row | Compound | Net charge at pH 7.5 [1] | L, fibril contour length [2] | h, twist pitch [2] | l, fibril persistence length [2] | wn, width of the fibril at its narrowest point [2] | ww, width of the fibril at its widest point [2] | also measured
1 | CH3CO-Q-Q-R-F-E-W-E-F-E-Q-Q-NH2 (Ac-QQRFEWEFEQQ-NH2) [Peptide P11-4] | −2 | 1.2-7 μm | 132-360 nm | 0.7-1.4 μm | 5.5-8 nm | 8-14 nm | 
2 | QQE^-FE^-WE^-FE^±QQ (QQEFEWEFEQQ; self assembling peptide P11-23) | -4 |  |  |  |  |  | 
3 | O=C(O)C(F)(F)F [TFA] |  |  |  |  |  |  | support of cell growth (L929 fibroblast cells; collagen gels supplemented with 0.9 mg·ml^−1 TFA): supported cell growth with no obvious detrimental effect on the cells; support of cell growth (L929 fibroblast cells; collagen gels supplemented with 5.1 mg·ml^−1 TFA): supported cell growth with no visible detrimental effect on cell growth
4 | QQQFQWQFE^-QQ (QQQFQWQFEQQ; self assembling peptide P11-21) | -1 |  |  |  |  |  | 
5 | CC(=O)N[C@@H](CCC(N)=O)C(=O)N[C@@H](CCC(N)=O)C(=O)N[C@@H](CCCNC(=N)N)C(=O)N[C@@H](CCC(N)=O)C(=O)N[C@@H](CCC(=O)O)C(=O)N[C@@H](CCC(N)=O)C(=O)N[C@@H](CCC(=O)O)C(=O)N[C@@H](CCC(N)=O)C(=O)N[C@@H](CCC(=O)O)C(=O)N[C@@H](CCC(N)=O)C(=O)N[C@@H](CCC(N)=O)C(N)=O [Peptide P11-20, CH3CO-Q-Q-R-Q-E-Q-E-Q-E-Q-Q-NH2] (Ac-QQRQEQEQEQQ-NH2) | −2 | 0.9-2.8 μm | 202-363 nm | 0.4-1.5 μm | 8-15 nm | 14-20 nm | peptide concentration for self-supporting gel [3]: > 20 mg/mL; support of cell growth (L929 fibroblast cells; L929 cells in peptide gels): supported cell growth reasonably well; macroscopic appearance of gel (L929 fibroblast cells; at end of cell culture experiment): some signs of macroscopic degradation
6 | CC(=O)N[C@H](C(=O)N[C@H](C(=O)N[C@@H](CCCNC(=N)N)C(=O)N[C@@H](Cc1ccccc1)C(=O)N[C@@H](CCC(=O)O)C(=O)N[C@@H](Cc1c[nH]c2ccccc12)C(=O)N[C@@H](CCC(=O)O)C(=O)N[C@@H](Cc1ccccc1)C(=O)N[C@@H](CCC(=O)O)C(=O)N[C@H](C(=O)N[C@H](C(N)=O)[C@@H](C)O)[C@@H](C)O)[C@@H](C)O)[C@@H](C)O [Peptide P11-17, CH3CO-T-T-R-F-E-W-E-F-E-T-T-NH2] (Ac-TTRFEWEFETT-NH2) | −2 | 1.3-4.5 μm | 150-236 nm | 0.3-1.7 μm | 5-10 nm | 10-16 nm | 
7 | CC(=O)N[C@@H](CCC(N)=O)C(=O)N[C@@H](CCC(N)=O)C(=O)N[C@@H](CCCNC(=N)N)C(=O)N[C@@H](CCC(N)=O)C(=O)N[C@@H](CCCN)C(=O)N[C@@H](CCC(N)=O)C(=O)N[C@@H](CCCN)C(=O)N[C@@H](CCC(N)=O)C(=O)N[C@@H](CCC(=O)O)C(=O)N[C@@H](CCC(N)=O)C(=O)N[C@@H](CCC(N)=O)C(N)=O [Peptide P11-19, CH3CO-Q-Q-R-Q-O-Q-O-Q-E-Q-Q-NH2] (Ac-QQRQ[Orn]Q[Orn]QEQQ-NH2) | +2 | 1.5-3 μm | 206-356 nm | 0.5-1 μm | 7-13 nm | 15-22 nm | peptide concentration for self-supporting gel [3]: 60 mg/mL; self-assembly / gelation at 30 mg·ml^−1 ([3]; physiological solution, 30 mg·ml^−1): does not self assemble; also recorded: did not gel
8 | CC(=O)N[C@@H](CO)C(=O)N[C@@H](CO)C(=O)N[C@@H](CCCNC(=N)N)C(=O)N[C@@H](Cc1ccccc1)C(=O)N[C@@H](CCC(=O)O)C(=O)N[C@@H](Cc1c[nH]c2ccccc12)C(=O)N[C@@H](CCC(=O)O)C(=O)N[C@@H](Cc1ccccc1)C(=O)N[C@@H](CCC(=O)O)C(=O)N[C@@H](CO)C(=O)N[C@@H](CO)C(N)=O [Peptide P11-9, CH3CO-S-S-R-F-E-W-E-F-E-S-S-NH2] (Ac-SSRFEWEFESS-NH2) | −2 | 1.1-5 μm | 118-236 nm | 0.4-1.3 μm | 3.5-7 nm | 7-12 nm | support of cell growth (L929 fibroblast cells; L929 cells in peptide gels): unsuccessful in supporting cell growth
9 | CC(=O)N[C@H](C(=O)N[C@H](C(=O)N[C@@H](CCCNC(=N)N)C(=O)N[C@@H](Cc1ccccc1)C(=O)N[C@@H](CCCN)C(=O)N[C@@H](Cc1c[nH]c2ccccc12)C(=O)N[C@@H](CCCN)C(=O)N[C@@H](Cc1ccccc1)C(=O)N[C@@H](CCC(=O)O)C(=O)N[C@H](C(=O)N[C@H](C(N)=O)[C@@H](C)O)[C@@H](C)O)[C@@H](C)O)[C@@H](C)O [Peptide P11-18, CH3CO-T-T-R-F-O-W-O-F-E-T-T-NH2] (Ac-TTRF[Orn]W[Orn]FETT-NH2) | +2 | 1.4-4.2 μm | 142-236 nm | 0.5-1.7 μm | 7-11 nm | 11-21 nm | support of cell growth (L929 fibroblast cells; L929 cells in peptide gels): unsuccessful in supporting cell growth
10 | QQQFE^-WE^-FE^±QQ (QQQFEWEFEQQ; self assembling peptide P11-22) | -3 |  |  |  |  |  | 
11 | CC(=O)N[C@@H](CO)C(=O)N[C@@H](CO)C(=O)N[C@@H](CCCNC(=N)N)C(=O)N[C@@H](Cc1ccccc1)C(=O)N[C@@H](CCCN)C(=O)N[C@@H](Cc1c[nH]c2ccccc12)C(=O)N[C@@H](CCCN)C(=O)N[C@@H](Cc1ccccc1)C(=O)N[C@@H](CCC(=O)O)C(=O)N[C@@H](CO)C(=O)N[C@@H](CO)C(N)=O [Peptide P11-12, CH3CO-S-S-R-F-O-W-O-F-E-S-S-NH2] (Ac-SSRF[Orn]W[Orn]FESS-NH2) | +2 | 1.3-5 μm | 139-220 nm | 0.4-1.2 μm | 5-7 nm | 11-16 nm | support of cell growth (L929 fibroblast cells; L929 cells in peptide gels): unsuccessful in supporting cell growth
12 | CH3CO-E-Q-E-F-E-W-E-F-E-Q-E-HN2 (Ac-EQEFEWEFEQE-NH2) [Peptide P11-13] | -6 |  |  |  |  |  | 
13 | QQO^+FO^+WO^+FQQQ (QQ[Orn]F[Orn]W[Orn]FQQQ; not fully specified (N-terminus, C-terminus); printed as QQO+FO+WO+FQQQ) [Peptide P11-5] | +3 |  |  |  |  |  | 
14 | QQR^+FQWQFQQQ (QQRFQWQFQQQ; self assembling peptide P11-3) |  |  |  |  |  |  | fibrils and gels after sterilisation using an autoclave ([3]; cell media): reform after sterilisation using an autoclave; effect on tissue surrounding the injection site by histology [4]: no effect
15 | CH3CO-Q-Q-O-F-O-W-O-F-O-Q-Q-NH2 (Ac-QQ[Orn]F[Orn]W[Orn]F[Orn]QQ-NH2; SMILES CC(=O)N[C@@H](CCC(N)=O)C(=O)N[C@@H](CCC(N)=O)C(=O)N[C@@H](CCCN)C(=O)N[C@@H](Cc1ccccc1)C(=O)N[C@@H](CCCN)C(=O)N[C@@H](Cc1c[nH]c2ccccc12)C(=O)N[C@@H](CCCN)C(=O)N[C@@H](Cc1ccccc1)C(=O)N[C@@H](CCCN)C(=O)N[C@@H](CCC(N)=O)C(=O)N[C@@H](CCC(N)=O)C(N)=O) [Peptide P11-14] | +4 |  |  |  |  |  | 
